Read-outs that look alike come from different tables or passages of the source.
Experiments:
[1] = tested on: mature cardiomyocytes (hiPSC-CMs) on AFC-ECM
Description: The cardiotoxicity and/or proarrhythmia testing can be conducted using any type of equipment suitable for measuring such activity. In some embodiments, the cellular constructs of monolayers of mature cardiomyocytes on AFC-ECM are prepared as described supra. After the maturation process (generally 7 days or less), the electrophysiology of each well is observed using a plate reader. A suitable voltage sensitive or calcium sensitive fluorescent dye is loaded into each well. Non-limiting voltage sensitive dyes include FluoVolt™ dye commercially available from ThermoFisher. In some embodiments, the plate reader can rely on a suitable high spatiotemporal CCD camera combined with suitable lighting, such as light emitting diodes (LEDs), of the appropriate wavelength to excite each dye. Such high spatiotemporal CCD cameras are commercially available from SciMeasure. In some embodiments, the camera image acquisition rate is greater than or equal to 150 frames per second. In some embodiments, the camera and lens combination are designed such that it allows visualization of all the wells of the multi-well plate simultaneously with sufficient resolution to observe action potential and calcium wave propagation. Each plate is centered under the camera system, lighting is switched on and camera acquisition is initiated and electrophysiological activity is recorded. Experiments are performed at about 37° C. After baseline readings are made, the drug to be tested is added to the wells and the effects are recorded. Spontaneous activity is recorded for a sufficient period of time to obtain images, e.g. at least 10 seconds. The images can be stored on a computer. Images are analyzed and action potential duration, conduction velocity, beat rate and activation patterns can be quantified using image analysis software. Visualization of electrical wave patterns is important to determine a drug compound's effect to cause potentially fatal arrhythmias, e.g., Torsades de Pointes (TdP). Thus, in addition to providing information on a compound's effect on spontaneous action potential duration, the methods disclosed herein can also provide information on impulse conduction velocity and activation pattern depending on the type of equipment used.
After the 7-day maturation process the electrophysiology of each well was observed using a plate reader using the following high throughput screen method. FluoVolt™ dye in Hanks Balanced Salt Solution was loaded into each well. A high spatiotemporal CCD camera (SciMeasure DaVinci camera) combined with light emitting diodes (LEDs) as shown in the schematic in FIG. 22. The camera and lens combination were designed such that it allowed visualization of all the wells of the 96-well plate simultaneously with sufficient resolution to observe action potential and calcium wave propagation. Each plate was centered under the camera system, lighting was switched on and camera acquisition was initiated and electrophysiological activity was recorded. Experiments were performed at about 37° C. Spontaneous activity was recorded for at least 10 seconds and images were stored on a computer. […] Images were analyzed and action potential duration, conduction velocity, beat rate and activation patterns were quantified using image analysis software.
The drugs were selected from the CiPA Initiative's list of compounds for validation and testing of CiPA and are classified as high risk, intermediate risk or low risk for causing fatal arrhythmias (TdPs) in patients.

[2] = CiPA list: high, intermediate or low risk for causing fatal arrhythmias (TdPs) in patients; cited from earlier work
[3] = mature cardiomyocytes on AFC-ECM, 96-well plates, plate reader, any arrhythmia detected over Dose 1-4
[4] = mature cardiomyocytes on AFC-ECM, 96-well plates, at 10 times the effective therapeutic plasma concentration

Compound	APD90 Prolongation? @10X ETPC [1]	Arrhythmia Detected? [1]	Risk Category [2]	Arrhythmia Detected? [1, 3]	APD90 Prolongation? @10X ETPC [1, 4]
COc1ccc(CCN2CCC(Nc3nc4ccccc4n3Cc3ccc(F)cc3)CC2)cc1 [Astemizole]	Yes	Yes			
Cc1nccn1CC1CCc2c(c3ccccc3n2C)C1=O (stereo not drawn) [Ondansetron]	Yes	Yes, EAD	Intermediate		
CC(C)(C)c1ccc(C(O)CCCN2CCC(C(O)(c3ccccc3)c3ccccc3)CC2)cc1 (stereo not drawn) [Terfenadine]	Yes	No			
CN(CCOc1ccc(NS(C)(=O)=O)cc1)CCc1ccc(NS(C)(=O)=O)cc1 [Dofetilide]	Yes	Yes, EAD			
CCOC(=O)C1=C(C)NC(C)=C(C(=O)OC)C1c1cccc([N+](=O)[O-])c1 (stereo not drawn) [Nitrendipine]	No,	No			
CCCCCCCN(CC)CCCC(O)c1ccc(NS(C)(=O)=O)cc1 (stereo not drawn) [Ibutilide]	YeS	Yes, EAD	High		
COc1cc(N)c(Cl)cc1C(=O)NC1CCN(CCCOc2ccc(F)cc2)CC1OC (stereo not drawn) [Cisapride]	No	Yes	Intermediate		
COc1ccc(CCN(C)CCCC(C#N)(c2ccc(OC)c(OC)c2)C(C)C)cc1OC (stereo not drawn) [Verapamil]	No, Shortening	No			
CC(C)N(CCC(C(N)=O)(c1ccccc1)c1ccccn1)C(C)C (stereo not drawn) [Disopyramide]	Yes	Yes, EAD, TA			
CN1CCN(C2=Nc3cc(Cl)ccc3Nc3ccccc32)CC1 [Clozapine]	Yes	No			
COc1cc2c(Nc3ccc(Br)cc3F)ncnc2cc1OCC1CCN(C)CC1 [Vandetanib]	Yes	Yes, EAD	High		
Cc1cccc(C)c1OCC(C)N (stereo not drawn) [Mexiletine]	No	No			
COc1ccc([C@@H]2Sc3ccccc3N(CCN(C)C)C(=O)[C@@H]2OC(C)=O)cc1 [Diltiazem]	No, shortening	No			
CN1CCN(CCCCN2C(=O)CN(/N=C/c3ccc(-c4ccc(Cl)cc4)o3)C2=O)CC1 [Azimilide]	Yes	Yes, EAD	High		
C=C[C@H]1C[N@@]2CC[C@H]1C[C@@H]2[C@@H](O)c1ccnc2ccc(OC)cc12 [Quinidine]	Yes			Yes, EAD	
CC(C)COCC(CN(Cc1ccccc1)c1ccccc1)N1CCCC1 (stereo not drawn) [Bepridil]	Yes	Yes, Q	High		
O=c1[nH]c2ccccc2n1CCCN1CCC(n2c(=O)[nH]c3cc(Cl)ccc32)CC1 [Domperidone]	Yes	Yes, TA			
CC(C)NCC(O)c1ccc(NS(C)(=O)=O)cc1 (stereo not drawn) [D, I Sotalol]			High	Yes, EAD	Yes
CCOC(=O)N1CCC(=C2c3ccc(Cl)cc3CCc3cccnc32)CC1 [Loratadine]				No	No
O=C(CCCN1CC=C(n2c(=O)[nH]c3ccccc32)CC1)c1ccc(F)cc1 [Droperidol]	Yes	Yes, EAD			
CC/C(=C(\c1ccccc1)c1ccc(OCCN(C)C)cc1)c1ccccc1 [Tamoxifen]	No	No			
Cc1nc2n(c(=O)c1CCN1CCC(c3noc4cc(F)ccc34)CC1)CCCC2 [Risperidone]		No			
COCCc1ccc(OCC(O)CNC(C)C)cc1 (stereo not drawn) [Metoprolol]	No	Yes,			
COc1ccccc1OCC(O)CN1CCN(CC(=O)Nc2c(C)cccc2C)CC1 (stereo not drawn) [Ranolazine]	No	No	Low		
O=c1[nH]c2ccccc2n1C1CCN(CCCC(c2ccc(F)cc2)c2ccc(F)cc2)CC1 [Pimozide]	No	Yes			

From US11220671B2, “Methods for the maturation of cardiomyocytes on amniotic fluid cell-derived ECM, cellular constructs, and uses for cardiotoxicity and proarrhythmic screening of drug compounds” (STEMBIOSYS, INC., priority 2019, dated 2022)
